Source: US20240239806A1, “COMPOUNDS, COMPOSITIONS AND METHODS OF TREATING DISORDERS” (Chengdu Anticancer Bioscience, Ltd., priority 2021, published 2024)

Test system: RPEMYC^H2B-GFP cells
Test: Phenotypic screening assay (mitotic arrest, polyploidy)
Format: cell-based
Details: 1 nM to 30 μM, read-out: Min. Effective conc. for Polyploidy (≥5%)
In short: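 RPE cells expressing MYC and H2B-EGFP treated with compound at 1 nM–30 μM; mitotic index scored at 24 h and polyploidy (DNA content) at 48 h by automated imaging, with reads at 24, 48 or 72 h. Hits show transient mitotic arrest followed by polyploid accumulation.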

Row | SMILES | minimal effective concentration [µM]
1 | COc1cc(Oc2ncnc3cc[nH]c23)cc(-n2cccn2)c1 [Compound 35, 4-(3-methoxy-5-(1H-pyrazol-1-yl)phenoxy)-5H-pyrrolo[3,2-d]pyrimidine] | 0.001 to 1
2 | COc1cc(NC(C)=O)cc(Oc2ccnc3ccc(F)cc23)c1 [Compound 20, N-(3-((6-fluoroquinolin-4-yl)oxy)-5-methoxyphenyl)acetamide] | 0.001 to 1

Same assay, conditions: 1 nM to 30 μM, read-out: Mitotic Arrest (≥5%)

Row | SMILES | minimal effective concentration [µM]
3 | COc1cc(Oc2ncnc3cc[nH]c23)cc(-n2cccn2)c1 [Compound 35, 4-(3-methoxy-5-(1H-pyrazol-1-yl)phenoxy)-5H-pyrrolo[3,2-d]pyrimidine] | 0.001 to 1
4 | COc1cc(NC(C)=O)cc(Oc2ccnc3ccc(F)cc23)c1 [Compound 20, N-(3-((6-fluoroquinolin-4-yl)oxy)-5-methoxyphenyl)acetamide] | 0.001 to 1

Same assay, conditions: 1 nM to 30 μM, read-out: Proliferative arrest (>50%)

Row | SMILES | IC50 [nM]
5 | COc1cc(Oc2ncnc3cc[nH]c23)cc(-n2cccn2)c1 [Compound 35, 4-(3-methoxy-5-(1H-pyrazol-1-yl)phenoxy)-5H-pyrrolo[3,2-d]pyrimidine] | 1 to 1000
6 | COc1cc(NC(C)=O)cc(Oc2ccnc3ccc(F)cc23)c1 [Compound 20, N-(3-((6-fluoroquinolin-4-yl)oxy)-5-methoxyphenyl)acetamide] | 1 to 1000

Test system: A549
Test: MECP in cancer cell line
Format: cell-based
Details: Homo sapiens
Procedure: (§1) Six lung cancer cell lines (NCI-H23, NCI-H460, NCI-H596, NCI-H2170, Calu-6 and A549), two colon cancer cell lines (HCT116 and SW460), one breast cancer cell line MDA-MB-231, one gastric cancer cell line NCI-N87, one prostate cancer cell line DU145, one cervical cancer cell line Hela, and one glioblastoma cell line T98G were obtained from ATCC. The T2 HCC cell line was derived from a mouse liver cancer model initiated by a transgene of MYC. All cell lines were cultured in DMEM (Gibco, Cleveland, TN, USA) supplemented with 5% fetal bovine serum (Gibco), penicillin (100 U/mL)—streptomycin (100 μg/mL) (Gibco, Cat. No. 15140-122), 2 mM L-glutamine (Gibco, 200 mM solution, Cat. No. 25030081), and 1 mM sodium pyruvate (Gibco, 100 mM solution, Cat. No. 11360070) at 37° C. in a humidified incubator that was maintained at 5% CO2.
(§2) We have previously developed a mechanism-informed phenotypic screening assay to identify novel antimitotic agents. Equipped with a prior understanding of the versatile functions of the chromosomal passenger protein (CPP) complex in orchestrating karyokinesis and cytokinesis, the screening assay is to score for phenotypes typically seen when the CPP complex is disabled. Specifically, the parameters for a positive hit are a temporary elevation of mitotic index (MI) at 24 hours of drug treatment and an accumulation of polyploid cells at 48 hours of drug treatment, indicative of mitotic arrest and cytokinetic failure respectively. These parameters exclude compounds that elicit only a prolonged arrest of cells in mitosis, a phenotype typically provoked by spindle toxins. The screening procedure is briefly summarized here. RPEMYC^H2B-GFP cells engineered to express a Histone 2B-EGFP fusion protein were passaged as batches of 96-well plates, 18-24 hours before exposure to the chemical compounds of the present disclosure at concentrations from 1 nM to 30 μM. At 24, 48 or 72 hours after initiation of treatment, cells were analyzed for either an arrest in mitosis or a change in DNA content by GE IN-Cell Analyzer 2000. As set forth in Table 2 below, a value of greater than or equal to 1 nM and less than or equal to 1.0 μM is marked “A”; a value greater than 1.00 μM and less than or equal to 10.0 μM is marked “B”; a value greater than 10.0 μM and less than or equal to 30.0 μM is marked “C”; and a value greater than 30.0 μM is marked “D.”

Row | SMILES | minimal effective concentration [µM]
7 | COc1cc(Oc2ncnc3cc[nH]c23)cc(-n2cccn2)c1 [Compound 35, 4-(3-methoxy-5-(1H-pyrazol-1-yl)phenoxy)-5H-pyrrolo[3,2-d]pyrimidine] | 0.001 to 1
8 | COc1cc(NC(C)=O)cc(Oc2ccnc3ccc(F)cc23)c1 [Compound 20, N-(3-((6-fluoroquinolin-4-yl)oxy)-5-methoxyphenyl)acetamide] | 0.001 to 1

Test system: HCT116
Test: MECP in cancer cell line
Format: cell-based
Details: Homo sapiens, HCT-116
Procedure: as §1, §2

Row | SMILES | minimal effective concentration [µM]
9 | COc1cc(Oc2ncnc3cc[nH]c23)cc(-n2cccn2)c1 [Compound 35, 4-(3-methoxy-5-(1H-pyrazol-1-yl)phenoxy)-5H-pyrrolo[3,2-d]pyrimidine] | 0.001 to 1
10 | COc1cc(NC(C)=O)cc(Oc2ccnc3ccc(F)cc23)c1 [Compound 20, N-(3-((6-fluoroquinolin-4-yl)oxy)-5-methoxyphenyl)acetamide] | 0.001 to 1

Test system: Hela
Test: MECP in cancer cell line
Format: cell-based
Details: Homo sapiens
Procedure: as §1, §2

Row | SMILES | minimal effective concentration [µM]
11 | COc1cc(Oc2ncnc3cc[nH]c23)cc(-n2cccn2)c1 [Compound 35, 4-(3-methoxy-5-(1H-pyrazol-1-yl)phenoxy)-5H-pyrrolo[3,2-d]pyrimidine] | 0.001 to 1
12 | COc1cc(NC(C)=O)cc(Oc2ccnc3ccc(F)cc23)c1 [Compound 20, N-(3-((6-fluoroquinolin-4-yl)oxy)-5-methoxyphenyl)acetamide] | 0.001 to 1

Test system: MDA-MB-231
Test: MECP in cancer cell line
Format: cell-based
Details: Homo sapiens
Procedure: as §1, §2

Row | SMILES | minimal effective concentration [µM]
13 | COc1cc(Oc2ncnc3cc[nH]c23)cc(-n2cccn2)c1 [Compound 35, 4-(3-methoxy-5-(1H-pyrazol-1-yl)phenoxy)-5H-pyrrolo[3,2-d]pyrimidine] | 0.001 to 1
14 | COc1cc(NC(C)=O)cc(Oc2ccnc3ccc(F)cc23)c1 [Compound 20, N-(3-((6-fluoroquinolin-4-yl)oxy)-5-methoxyphenyl)acetamide] | 0.001 to 1

Test system: SW480
Test: MECP in cancer cell line
Format: cell-based
Details: Homo sapiens
Procedure: as §1, §2

Row | SMILES | minimal effective concentration [µM]
15 | COc1cc(Oc2ncnc3cc[nH]c23)cc(-n2cccn2)c1 [Compound 35, 4-(3-methoxy-5-(1H-pyrazol-1-yl)phenoxy)-5H-pyrrolo[3,2-d]pyrimidine] | 0.001 to 1
16 | COc1cc(NC(C)=O)cc(Oc2ccnc3ccc(F)cc23)c1 [Compound 20, N-(3-((6-fluoroquinolin-4-yl)oxy)-5-methoxyphenyl)acetamide] | 0.001 to 1

Test system: T2 HCC
Test: MECP in cancer cell line
Format: cell-based
Details: Mus musculus
Procedure: as §1, §2

Row | SMILES | minimal effective concentration [µM]
17 | COc1cc(Oc2ncnc3cc[nH]c23)cc(-n2cccn2)c1 [Compound 35, 4-(3-methoxy-5-(1H-pyrazol-1-yl)phenoxy)-5H-pyrrolo[3,2-d]pyrimidine] | 0.001 to 1
18 | COc1cc(NC(C)=O)cc(Oc2ccnc3ccc(F)cc23)c1 [Compound 20, N-(3-((6-fluoroquinolin-4-yl)oxy)-5-methoxyphenyl)acetamide] | 0.001 to 1

Test system: NCI-H23
Test: MECP in cancer cell line
Format: cell-based
Details: Homo sapiens
Procedure: as §1, with “CO2. […]” for “CO2.”

Row | SMILES | minimal effective concentration [µM]
19 | COc1cc(Oc2ncnc3cc[nH]c23)cc(-n2cccn2)c1 [Compound 35, 4-(3-methoxy-5-(1H-pyrazol-1-yl)phenoxy)-5H-pyrrolo[3,2-d]pyrimidine] | 0.001 to 1
20 | COc1cc(NC(C)=O)cc(Oc2ccnc3ccc(F)cc23)c1 [Compound 20, N-(3-((6-fluoroquinolin-4-yl)oxy)-5-methoxyphenyl)acetamide] | 0.001 to 1

Test system: NCI-N87
Test: MECP in cancer cell line
Format: cell-based
Details: Homo sapiens
Procedure: as §1, with “CO2. […]” for “CO2.”

Row | SMILES | minimal effective concentration [µM]
21 | COc1cc(Oc2ncnc3cc[nH]c23)cc(-n2cccn2)c1 [Compound 35, 4-(3-methoxy-5-(1H-pyrazol-1-yl)phenoxy)-5H-pyrrolo[3,2-d]pyrimidine] | 0.001 to 1
22 | COc1cc(NC(C)=O)cc(Oc2ccnc3ccc(F)cc23)c1 [Compound 20, N-(3-((6-fluoroquinolin-4-yl)oxy)-5-methoxyphenyl)acetamide] | 0.001 to 1

Test system: A549
Test: MTT assay of cellular proliferation
Format: cell-based
Details: Homo sapiens, 50% inhibition of cellular proliferation
Procedure: as §1
(§3) The MTT assay measures cellular metabolic activity as a proxy for cell viability and involves the conversion of the water-soluble yellow dye MTT [3-(4,5-dimethylthiazol-2-yl)-2,5-diphenyltetrazolium bromide] into an insoluble purple formazan by the action of mitochondrial reductase. Formazan is then solubilized and its concentration is determined by measuring the optical density (OD) value at a wavelength of 570 nm. The value is in proportional to the number of live cells with excellent linearity up to ˜10^6 cells per well. The MTT assay was used to determine the EC50 value, the concentration of a compound that leads to 50% inhibition of cellular proliferation. Briefly, cells were split when growing to the mid-Log phase. Cells in 100 μL of culture medium were seeded into each well of 96-well microplates and cultivated for 15-24 hours to reach a confluence of 20-30% and were then exposed to drugs at concentrations ranging from 1 nM to 30 μM. At the endpoint, 20 μL of a MTT stock solution in DMSO (5 mg/mL) was added to each well that contains 100 μL of DMEM. The microplates were left in the cell culture incubator for 3-4 h before subjected to solubilization and determination of formazan at A570 in a microplate reader (BioTek ELX808iu). […] Therefore, these compounds might hold a broad utility in the treatment of a large variety of human malignancies.

Row | SMILES | EC50 [nM]
23 | COc1cc(Oc2ncnc3cc[nH]c23)cc(-n2cccn2)c1 [Compound 35, 4-(3-methoxy-5-(1H-pyrazol-1-yl)phenoxy)-5H-pyrrolo[3,2-d]pyrimidine] | 1 to 1000
24 | COc1cc(NC(C)=O)cc(Oc2ccnc3ccc(F)cc23)c1 [Compound 20, N-(3-((6-fluoroquinolin-4-yl)oxy)-5-methoxyphenyl)acetamide] | 1 to 1000

Test system: HCT116
Test: MTT assay of cellular proliferation
Format: cell-based
Details: Homo sapiens, HCT-116, 50% inhibition of cellular proliferation
Procedure: as §1, §3

Row | SMILES | EC50 [nM]
25 | COc1cc(Oc2ncnc3cc[nH]c23)cc(-n2cccn2)c1 [Compound 35, 4-(3-methoxy-5-(1H-pyrazol-1-yl)phenoxy)-5H-pyrrolo[3,2-d]pyrimidine] | 1 to 1000
26 | COc1cc(NC(C)=O)cc(Oc2ccnc3ccc(F)cc23)c1 [Compound 20, N-(3-((6-fluoroquinolin-4-yl)oxy)-5-methoxyphenyl)acetamide] | 1 to 1000

Test system: Hela
Test: MTT assay of cellular proliferation
Format: cell-based
Details: Homo sapiens, 50% inhibition of cellular proliferation
Procedure: as §1, §3

Row | SMILES | EC50 [nM]
27 | COc1cc(Oc2ncnc3cc[nH]c23)cc(-n2cccn2)c1 [Compound 35, 4-(3-methoxy-5-(1H-pyrazol-1-yl)phenoxy)-5H-pyrrolo[3,2-d]pyrimidine] | 1 to 1000
28 | COc1cc(NC(C)=O)cc(Oc2ccnc3ccc(F)cc23)c1 [Compound 20, N-(3-((6-fluoroquinolin-4-yl)oxy)-5-methoxyphenyl)acetamide] | 1 to 1000

Test system: MDA-MB-231
Test: MTT assay of cellular proliferation
Format: cell-based
Details: Homo sapiens; MDA-MB-231, MTT, 50% inhibition of cellular proliferation
Procedure: as §1, §3

Row | SMILES | EC50 [nM]
29 | COc1cc(Oc2ncnc3cc[nH]c23)cc(-n2cccn2)c1 [Compound 35, 4-(3-methoxy-5-(1H-pyrazol-1-yl)phenoxy)-5H-pyrrolo[3,2-d]pyrimidine] | 1 to 1000
30 | COc1cc(NC(C)=O)cc(Oc2ccnc3ccc(F)cc23)c1 [Compound 20, N-(3-((6-fluoroquinolin-4-yl)oxy)-5-methoxyphenyl)acetamide] | 1 to 1000

Test system: NCI-H23
Test: MTT assay of cellular proliferation
Format: cell-based
Details: Homo sapiens, 50% inhibition of cellular proliferation
Procedure: as §1, §3

Row | SMILES | EC50 [nM]
31 | COc1cc(Oc2ncnc3cc[nH]c23)cc(-n2cccn2)c1 [Compound 35, 4-(3-methoxy-5-(1H-pyrazol-1-yl)phenoxy)-5H-pyrrolo[3,2-d]pyrimidine] | 1 to 1000
32 | COc1cc(NC(C)=O)cc(Oc2ccnc3ccc(F)cc23)c1 [Compound 20, N-(3-((6-fluoroquinolin-4-yl)oxy)-5-methoxyphenyl)acetamide] | 1 to 1000

Test system: NCI-N87
Test: MTT assay of cellular proliferation
Format: cell-based
Details: Homo sapiens, 50% inhibition of cellular proliferation
Procedure: as §1, §3

Row | SMILES | EC50 [nM]
33 | COc1cc(Oc2ncnc3cc[nH]c23)cc(-n2cccn2)c1 [Compound 35, 4-(3-methoxy-5-(1H-pyrazol-1-yl)phenoxy)-5H-pyrrolo[3,2-d]pyrimidine] | 1 to 1000
34 | COc1cc(NC(C)=O)cc(Oc2ccnc3ccc(F)cc23)c1 [Compound 20, N-(3-((6-fluoroquinolin-4-yl)oxy)-5-methoxyphenyl)acetamide] | 1 to 1000

Test system: SW480
Test: MTT assay of cellular proliferation
Format: cell-based
Details: Homo sapiens, 50% inhibition of cellular proliferation
Procedure: as §1, §3

Row | SMILES | EC50 [nM]
35 | COc1cc(Oc2ncnc3cc[nH]c23)cc(-n2cccn2)c1 [Compound 35, 4-(3-methoxy-5-(1H-pyrazol-1-yl)phenoxy)-5H-pyrrolo[3,2-d]pyrimidine] | 1 to 1000
36 | COc1cc(NC(C)=O)cc(Oc2ccnc3ccc(F)cc23)c1 [Compound 20, N-(3-((6-fluoroquinolin-4-yl)oxy)-5-methoxyphenyl)acetamide] | 1 to 1000

Test system: T2 HCC
Test: MTT assay of cellular proliferation
Format: cell-based
Details: Mus musculus, 50% inhibition of cellular proliferation
Procedure: as §1, §3

Row | SMILES | EC50 [nM]
37 | COc1cc(Oc2ncnc3cc[nH]c23)cc(-n2cccn2)c1 [Compound 35, 4-(3-methoxy-5-(1H-pyrazol-1-yl)phenoxy)-5H-pyrrolo[3,2-d]pyrimidine] | 1 to 1000
38 | COc1cc(NC(C)=O)cc(Oc2ccnc3ccc(F)cc23)c1 [Compound 20, N-(3-((6-fluoroquinolin-4-yl)oxy)-5-methoxyphenyl)acetamide] | 1 to 1000
